target: Glutamate receptor 3 (Rattus norvegicus, UniProt P19492)
Sequence (P19492 whole entry): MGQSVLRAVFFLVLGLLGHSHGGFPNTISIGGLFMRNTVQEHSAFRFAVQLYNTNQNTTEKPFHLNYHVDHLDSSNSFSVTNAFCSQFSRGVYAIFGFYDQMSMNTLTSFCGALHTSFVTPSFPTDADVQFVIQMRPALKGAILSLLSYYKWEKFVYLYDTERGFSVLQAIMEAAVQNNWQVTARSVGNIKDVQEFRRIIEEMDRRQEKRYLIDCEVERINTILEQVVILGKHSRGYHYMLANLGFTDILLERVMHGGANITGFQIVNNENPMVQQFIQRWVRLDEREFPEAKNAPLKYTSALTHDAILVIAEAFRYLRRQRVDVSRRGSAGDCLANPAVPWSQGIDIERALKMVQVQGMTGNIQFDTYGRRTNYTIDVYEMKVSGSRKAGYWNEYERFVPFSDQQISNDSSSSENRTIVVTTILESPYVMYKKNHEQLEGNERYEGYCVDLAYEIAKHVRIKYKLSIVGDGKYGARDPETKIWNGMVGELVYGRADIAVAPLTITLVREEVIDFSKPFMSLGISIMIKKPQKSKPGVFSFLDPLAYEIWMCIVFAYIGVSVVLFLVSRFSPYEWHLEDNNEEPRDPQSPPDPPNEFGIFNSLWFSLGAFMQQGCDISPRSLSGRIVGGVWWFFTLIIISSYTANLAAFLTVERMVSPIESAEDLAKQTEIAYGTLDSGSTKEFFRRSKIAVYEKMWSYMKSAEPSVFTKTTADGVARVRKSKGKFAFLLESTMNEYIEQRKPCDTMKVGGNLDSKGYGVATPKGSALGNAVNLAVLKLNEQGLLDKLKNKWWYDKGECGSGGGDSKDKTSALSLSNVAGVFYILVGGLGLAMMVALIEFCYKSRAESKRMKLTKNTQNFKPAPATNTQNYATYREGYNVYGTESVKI

Compared with `N#Cc1cccc(/C=C/c2nc3ccc(F)cc3c(=O)n2-c2ccccc2Cl)n1`, `CCN(CC)Cc1cccc(/C=C/c2nc3ccc(F)cc3c(=O)n2-c2ccccc2Cl)n1` [(R)-3-(2-Chloro-phenyl)-2-[(E)-2-(6-diethylaminomethyl-pyridin-2-yl)-vinyl]-6-fluoro-3H-quinazolin-4-one] is 8.3-fold higher in Ki: 3 nM for the first, 25 nM for the second. The first binds more tightly here.

First: Cc1ncccc1-n1c(/C=C/C2CSC(C)N2)nc2ccccc2c1=O (stereo not given) [CP-471236]
Second: Cc1ncccc1-n1c(/C=C/C2CS[C@H](C)N2)nc2ccccc2c1=O (stereo not given in full) [CP-471237]
The Ki of the first is lower: 57 nM for the first, greater than 10000 nM for the second. The first binds more tightly here.

For `CC1=NN=C(c2ccc(N)cc2)c2cc3c(cc2C1)OCO3` [GYKI-52466], the Ki was greater than 10000 nM.

— BindingDB's records for doi:10.1124/mol.58.6.1310 (Pfizer, 2000)
